ChEMBL document CHEMBL1147310, “Anti-inflammatory compounds from Sideritis javalambrensis n-hexane extract” (1989)
Activity calls are given as the source filed them. No cut-off for these calls is given here.

Assays:
[1] = test system: Mus musculus; experiment: Antiinflammatory activity in po dosed albino mouse assessed as inhibition of carrageenan-induced paw edema administered 1 hr before carrageenan challenge measured; assay type: functional, organism-based
[2] = test system: Mus musculus; experiment: Antiinflammatory activity in albino mouse assessed as inhibition of carrageenan-induced paw edema at 80 mg/kg, ip administered 1 hr before carrageenan challenge measured after 3 hrs; assay type: functional; conditions: route intraperitoneal
[3] = test system: Mus musculus; experiment: Antiinflammatory activity in albino mouse assessed as inhibition of carrageenan-induced paw edema at 125 mg/kg, po administered 1 hr before carrageenan challenge measured after 3 to 7 hrs; assay type: functional, organism-based; design: dose 125 mg/kg
[4] = test system: Mus musculus; experiment: Antiinflammatory activity in albino mouse assessed as inhibition of carrageenan-induced paw edema at 250 mg/kg, po administered 1 hr before carrageenan challenge measured after 3 hrs; assay type: functional
[5] = test system: Mus musculus; experiment: Antiinflammatory activity in albino mouse assessed as inhibition of carrageenan-induced paw edema at 75 mg/kg, ip administered 1 hr before carrageenan challenge measured after 3 to 7 hrs; assay type: functional; conditions: route intraperitoneal
[6] = test system: Mus musculus; experiment: Antiinflammatory activity in albino mouse assessed as inhibition of carrageenan-induced paw edema at 100 mg/kg, po administered 1 hr before carrageenan challenge measured after 3 hrs; assay type: functional

Structure (SMILES): C=C[C@@]1(CO)CC[C@H]2[C@]3(C)CCCC(C)(C)[C@H]3CC[C@]2(C)O1
- Activity [1]: Dose-dependent effect
- inhibition in vivo at 80 mg/kg [2]: 63.5%
- Activity [3]: Active
- inhibition in vivo at 250 mg/kg [4]: 55.8%
- inhibition in vivo at 75 mg/kg [5]: 60.1%

Structure (SMILES): CCCCC1C(=O)N(c2ccccc2)N(c2ccccc2)C1=O [PHENYLBUTAZONE]
- inhibition in vivo at 100 mg/kg [6]: 47.7%
